Source: PubChem BioAssay AID1963856 (Molecular Pharmacology Branch, DTP, NCI, 2024)

Test system: LG0567-F671-PDC KRAS tumor spheroid viability
Test: Anticancer human tumor LG0567-F671-PDC patient-derived lung adenocarcinoma cell line growth inhibition [KRAS2]
Conditions: spheroids with HUVEC and MSC; for IC50: curve of first compound; for viability, T/C: stronger effect = lower value
In short: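 KRAS-mutant tumor cells were grown as spheroids with HUVEC endothelial cells and human MSCs as stroma. Targeted agents were tested alone and with KRAS pathway inhibitors. Doses started at or near clinical Cmax, or 10 microM, descending half-log.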

[1] = second compound 0.1 µM, first compound 0.000316 µM
[2] = second compound 0.1 µM, first compound 0.001 µM
[3] = second compound 0.1 µM, first compound 0.00316 µM
[4] = second compound 0.1 µM, first compound 0.01 µM
[5] = second compound 0.1 µM, first compound 0.0316 µM
[6] = second compound 0.1 µM, first compound 0.1 µM
[7] = second compound 0.316 µM, first compound 0.000316 µM
[8] = second compound 0.316 µM, first compound 0.001 µM
[9] = second compound 0.316 µM, first compound 0.00316 µM
[10] = second compound 0.316 µM, first compound 0.01 µM
[11] = second compound 0.316 µM, first compound 0.0316 µM
[12] = second compound 0.316 µM, first compound 0.1 µM
[13] = second compound 1 µM, first compound 0.000316 µM
[14] = second compound 1 µM, first compound 0.001 µM
[15] = second compound 1 µM, first compound 0.00316 µM
[16] = second compound 1 µM, first compound 0.01 µM
[17] = second compound 1 µM, first compound 0.0316 µM
[18] = second compound 1 µM, first compound 0.1 µM
[19] = second compound 3.16 µM, first compound 0.000316 µM
[20] = second compound 3.16 µM, first compound 0.001 µM
[21] = second compound 3.16 µM, first compound 0.00316 µM
[22] = second compound 3.16 µM, first compound 0.01 µM
[23] = second compound 3.16 µM, first compound 0.0316 µM
[24] = second compound 3.16 µM, first compound 0.1 µM
[25] = second compound 10 µM, first compound 0.0316 µM
[26] = second compound 10 µM, first compound 0.1 µM
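Also: drug exposure lasted seven days after spheroids formed for three days.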
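For viability, T/C in this document: 100% = DMSO vehicle control viability.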

Cn1ncnc1[C@H]1c2n[nH]c(=O)c3cc(F)cc(c23)N[C@@H]1c1ccc(F)cc1 + CC1OCC2(CCN(c3cnc(Sc4ccnc(N)c4Cl)c(N)n3)CC2)C1N
IC50 (second compound 0.1 µM): < 0.316 nM | IC50 (second compound 0.316 µM): < 0.316 nM | IC50 (second compound 1 µM): < 0.316 nM | IC50 (second compound 3.16 µM): < 0.316 nM | IC50 (second compound 10 µM): < 0.316 nM | viability, T/C [1]: 48.9% | viability, T/C [2]: 53.1% | viability, T/C [3]: 52.4% | viability, T/C [4]: 56.4% | viability, T/C [5]: 57.3% | viability, T/C [6]: 54.9% | viability, T/C [7]: 47% | viability, T/C [8]: 34.5% | viability, T/C [9]: 29.1% | viability, T/C [10]: 36.4% | viability, T/C [11]: 32.8% | viability, T/C [12]: 35.2% | viability, T/C [13]: 29.4% | viability, T/C [14]: 25.9% | viability, T/C [15]: 21.9% | viability, T/C [16]: 18.9% | viability, T/C [17]: 22.5% | viability, T/C [18]: 23.3% | viability, T/C [19]: 24.4% | viability, T/C [20]: 19.1% | viability, T/C [21]: 19.1% | viability, T/C [22]: 15.3% | viability, T/C [23]: 12% | viability, T/C [24]: 13.8% | viability, T/C (second compound 10 µM, first compound 0.000316 µM): 11.2% | viability, T/C (second compound 10 µM, first compound 0.001 µM): 12.2% | viability, T/C (second compound 10 µM, first compound 0.00316 µM): 15.7% | viability, T/C (second compound 10 µM, first compound 0.01 µM): 9.32% | viability, T/C [25]: 8.87% | viability, T/C [26]: 7.89%

CC(C)n1nc(-c2ccc3oc(N)nc3c2)c2c(N)ncnc21 + C=CC(=O)N1CCN(c2nc(OCC3CCCN3C)nc3c2CCN(c2cccc4cccc(C)c24)C3)CC1CC#N
IC50 (second compound 0.0316 µM): < 0.316 nM | IC50 (second compound 0.1 µM): < 0.316 nM | IC50 (second compound 0.316 µM): < 0.316 nM | IC50 (second compound 1 µM): < 0.316 nM | IC50 (second compound 3.16 µM): < 0.316 nM | viability, T/C (second compound 0.0316 µM, first compound 0.000316 µM): 33.2% | viability, T/C (second compound 0.0316 µM, first compound 0.001 µM): 28.2% | viability, T/C (second compound 0.0316 µM, first compound 0.00316 µM): 20.5% | viability, T/C (second compound 0.0316 µM, first compound 0.01 µM): 19.3% | viability, T/C (second compound 0.0316 µM, first compound 0.0316 µM): 13.4% | viability, T/C (second compound 0.0316 µM, first compound 0.1 µM): 12.8% | viability, T/C [1]: 29.1% | viability, T/C [2]: 27% | viability, T/C [3]: 18.3% | viability, T/C [4]: 15.4% | viability, T/C [5]: 13.7% | viability, T/C [6]: 10.6% | viability, T/C [7]: 32.7% | viability, T/C [8]: 33.5% | viability, T/C [9]: 21.2% | viability, T/C [10]: 17.7% | viability, T/C [11]: 11.1% | viability, T/C [12]: 10.1% | viability, T/C [13]: 37.6% | viability, T/C [14]: 31.6% | viability, T/C [15]: 25.6% | viability, T/C [16]: 14.4% | viability, T/C [17]: 12.5% | viability, T/C [18]: 9.9% | viability, T/C [19]: 35% | viability, T/C [20]: 11.4% | viability, T/C [21]: 14.5% | viability, T/C [22]: 5.93% | viability, T/C [23]: 5.55% | viability, T/C [24]: 2.27%

COc1cc(Nc2ncc3c(n2)-c2ccc(Cl)cc2C(c2c(F)cccc2OC)=NC3)ccc1C(=O)O + C=CC(=O)N1CCN(c2nc(=O)n(-c3c(C)ccnc3C(C)C)c3nc(-c4c(O)cccc4F)c(F)cc23)C(C)C1
IC50 (second compound 0.1 µM): < 31.6 nM | IC50 (second compound 0.316 µM): < 31.6 nM | IC50 (second compound 1 µM): < 31.6 nM | IC50 (second compound 3.16 µM): < 31.6 nM | IC50 (second compound 10 µM): < 31.6 nM | viability, T/C [5]: 25.7% | viability, T/C [6]: 24.3% | viability, T/C (second compound 0.1 µM, first compound 0.316 µM): 25.9% | viability, T/C (second compound 0.1 µM, first compound 1 µM): 24.3% | viability, T/C (second compound 0.1 µM, first compound 3.16 µM): 22.8% | viability, T/C (second compound 0.1 µM, first compound 10 µM): 21.6% | viability, T/C [11]: 12.2% | viability, T/C [12]: 11.9% | viability, T/C (second compound 0.316 µM, first compound 0.316 µM): 11.1% | viability, T/C (second compound 0.316 µM, first compound 1 µM): 11.3% | viability, T/C (second compound 0.316 µM, first compound 3.16 µM): 11.4% | viability, T/C (second compound 0.316 µM, first compound 10 µM): 9.24% | viability, T/C [17]: 27.2% | viability, T/C [18]: 23.6% | viability, T/C (second compound 1 µM, first compound 0.316 µM): 23.5% | viability, T/C (second compound 1 µM, first compound 1 µM): 24.6% | viability, T/C (second compound 1 µM, first compound 3.16 µM): 25.7% | viability, T/C (second compound 1 µM, first compound 10 µM): 21.6% | viability, T/C [23]: 23.8% | viability, T/C [24]: 20.6% | viability, T/C (second compound 3.16 µM, first compound 0.316 µM): 20.2% | viability, T/C (second compound 3.16 µM, first compound 1 µM): 22.2% | viability, T/C (second compound 3.16 µM, first compound 3.16 µM): 21% | viability, T/C (second compound 3.16 µM, first compound 10 µM): 20.6% | viability, T/C [25]: 23.3% | viability, T/C [26]: 23.5% | viability, T/C (second compound 10 µM, first compound 0.316 µM): 23.8% | viability, T/C (second compound 10 µM, first compound 1 µM): 24.4% | viability, T/C (second compound 10 µM, first compound 3.16 µM): 22.5% | viability, T/C (second compound 10 µM, first compound 10 µM): 29.5%
